Reference: patent US10806819B2, “Wound coverings comprising vitamin d and related methods” (Marshall University Research Corporation, priority 2015, dated 2020)

Legend:
[1] = tested on: LL-37 production in U937 cells; experiment: LL-37 ELISA of U937 cell lysate; type: cell-based, human; conditions: for amount of LL-37 produced from U937 cells: 5.0×10^−6 M
Procedure: (§1) This Example describes the production of LL-37 in cells treated with the PCL fibers produced in Example 1. Single cell suspensions of both HaCat cells (human keratinocyte cell line) and U937 cells (leukemic monocyte lymphoma cell line) were seeded in 6-cm culture dishes. 5.0×10^5, 2.0×10^5 and 1.0×10^5 cells were seeded in the culture dishes for 1-day, 3-day, and 5-day treatments, respectively. Cells were treated with different formulations as described above and harvested at each time point. The subconfluent HaCat cells and U937 cell suspensions were washed with PBS twice. Subsequently, 300 μl of the M-PER mammalian protein extraction reagent with 0.1% protease inhibitor cocktail was added to […]. They were agitated for 20 min and lysate was collected and transferred to a 1.5-ml microcentrifuge tube. The samples were centrifuged at 14000×g for 40 min at 4° C. to pelletize the cell debris and the supernatant was transferred to a new tube for analysis. Total protein concentration was tested by MicroBCA kit before ELISA test. Concentrations of LL-37 in cell lysate were determined by LL-37 ELISA assay kit based on the manufacturer's instructions.

Pseudomonas aeruginosa = experiment: antibacterial activity of U937 lysis solutions (CFU count on agar plates); type: cell-based; conditions: U937 treated with 5.0×10^−6 M for 5 days
Procedure: FIG. 8 is a graph showing the quantification of Pseudomonas aeruginosa CFUs treated by U937 lysis solutions. U937 were incubated in the presence of 1 mg/ml pristine PCL fibers, 0.52% DMSO, 5.0×10^−7 M 25(OH)D, 5.0×10^−6 M 25(OH)D, and 1 mg/ml plasma treated and 25(OH)D loaded PCL fibers (containing 5.0×10^−7M 25(OH)D equivalent amount based on the calculations from release profiles in the first 3 days) for 1, 3 and 5 days. Bacteria were incubated with cell lysis solutions and CFUs were counted on agar plates. Each data point represents arithmetic mean±SD values from three samples. Statistical significance was evaluated by student's t-test (*p<0.05).
This Example describes the antibacterial activities in cells treated with the PCL fibers produced in Example 1. Briefly, bacteria were incubated with cell lysis solutions and CFUs were counted on agar plates.

[2] = tested on: cathelicidin (hCAP18) in U937 cells; experiment: immunofluorescence assay of cathelicidin (hCAP18) expression in U937 cells; type: cell-based, human
Procedure: (§2) This Example describes an immunofluorescence assay performed on cells treated with the PCL produced in Example 1. The cells were treated with different formulations as discussed above, the cells were rinsed with PBS twice and fixed with 4% paraformaldehyde for 30 min at 37° C. followed by incubation with TNBS (0.05% Triton-X100, 2% FBS in pH 7.2 PBS) for 30 minutes at room temperature prior to immunostaining. Goat anti-cathelicidin polyclonal antibody (1:200) was incubated to label intercellular cathelicidin at 4° C. overnight. Both the full length and cleaved C terminus of cathelicidin (hCAP18) were labeled. Mouse anti-goat IgG-FITC antibody (1:100) was incubated for 2 h after removal of primary antibody and washed with TNBS three times. Then, the secondary antibody was removed and washed by TNBS three times. Nuclei were counterstained with 10 μM DAPI in blue. Images were taken with a digital camera (Carl Zeiss). The exposure time for taking images for HaCat and U937 cells was fixed at 400 ms and 40 ms, respectively.

OKF6-TERT2 = conditions: recent study; cited from earlier work
[3] = tested on: cathelicidin (hCAP18) in HaCat cells; experiment: immunofluorescence assay of cathelicidin (hCAP18) expression in HaCat cells; type: cell-based, human
Procedure: as §2

U937 cells = experiment: U937 cell proliferation / cytotoxicity (cell counting); type: cell-based, human; conditions: 5.0×10^−6 M, 3 days and 5 days
Procedure: (§3) This Example describes cell proliferation of cells treated with the PCL fibers produced in Example 1. Human keratinocyte cell line (HaCat) and monocyte cell line (U937) were cultured in D-MEM with 10% FCS and RPMI-1640 media with 10% FCS respectively. The cultures were maintained at 37° C. under 95% air and 5% CO2 until reaching 80% confluence. The subconfluent HaCat cells were dissociated with a 0.05% trypsin-EDTA and re-suspended in a fresh complete media. U937 cells were precipitated by 300 g centrifugation and then re-suspended in a fresh complete media. The single HaCat cell suspensions were created by gently pipetting up and down HaCat cell aggregates and then placed in 6-cm culture dishes and incubated for 1 day. At the beginning of experiments, 5.0×10^5, 2.0×10^5 and 1.0×10^5 cells were seeded in the culture dishes for 1-day, 3-day, and 5-day treatments, respectively. The media was then replaced by D-MEM containing 0.52% DMSO, D-MEM containing 5.0×10^−7 M 25(OH)D, D-MEM containing 5.0×10^−6 M 25(OH)D, D-MEM containing 1 mg/ml pristine PCL fibers, and D-MEM containing 1 mg/ml 25(OH)D loaded PCL fibers and incubated for 1, 3, and 5 days. Of note, 5.0×10^−6 M 25(OH)D was chosen as a control due to cytotoxicity in OKF6-TERT2 cells. […]
(§4) The HaCat cells and U937 cells were seeded in 24-well plates. […] The cell density was calculated based on the cell counting (FIGS. 5A-5B). […]

[4] = tested on: LL-37 production in HaCat cells; experiment: LL-37 ELISA of HaCat cell lysate; type: cell-based, human; conditions: 5.0×10^−7 M free drug
Procedure: as §1

HaCat cells = experiment: HaCat cell proliferation / cytotoxicity (cell counting); type: cell-based, human; conditions: 5.0×10^−6 M free drug
Procedure: as §3, §4

Staphylococcus aureus = conditions: cited from earlier work
cell growth = conditions: direct administration; cited from earlier work

C=C1CC[C@H](O)C/C1=C/C=C1\CCC[C@]2(C)[C@@H]([C@H](C)CCCC(C)(C)O)CC[C@@H]12 [25(OH)D, 25-hydroxyvitamin D3]
amount of LL-37 produced from U937 cells ([1]; 3 days): increased | amount of LL-37 produced from U937 cells ([1]; 5 days): decreased sharply | production of hCAP 18 and LL-37 in U937 cells ([1]; 5.0×10^−7 M free drug): failed to induce production of significant amount | numbers of CFUs after incubation with U937 lysis solutions, versus other treatment groups (Pseudomonas aeruginosa): significantly lower numbers of CFUs | change of fluorescence intensity (hCAP 18) of U937 cells ([2]; 5.0×10^−6 M, day 1 to day 3): increased | change of fluorescence intensity (expression level of hCAP 18) of U937 cells ([2]; 5.0×10^−6 M, day 3 to day 5): decreased | hCAP 18 expression in U937 cells ([2]; 5.0×10^−6 M, one day): exhibited expression of hCAP 18 | cathelicidin staining in U937 cells ([2]; 5.0×10^−7 M, each time point): negative staining | concentration toxic to OKF6-TERT2 (OKF6-TERT2): ≥ 5 µM | concentration with little cytotoxicity in OKF6-TERT2 (OKF6-TERT2): lower than 5.0×10^−7 M | hCAP 18 staining in HaCat cells ([3]; 5.0×10^−6 M, 3 days): positive green fluorescent staining | hCAP 18 expression in HaCat cells ([3]; 5.0×10^−7 M): did not demonstrate hCAP 18 expression | proliferation rate of U937 cells (U937 cells): reduced dramatically | production of hCAP 18 and LL-37 in HaCat cells [4]: failed to induce production of significant amount | cytotoxic effects on HaCat cells (HaCat cells): marginal cytotoxic effects

LL-37: human cathelicidin, small cationic antimicrobial peptide derived from hCAP-18
EC50 against Staphylococcus aureus (Staphylococcus aureus): 1.27 µg/mL

C=C1/C(=C\C=C2/CCC[C@]3(C)[C@@H]([C@H](C)CCCC(C)(C)O)CC[C@@H]23)C[C@@H](O)C[C@@H]1O [1,25-hydroxyvitamin D3]
concentration generating cytotoxicity and inhibition of cell growth (cell growth): 10^−7 M
